In one experiment the target is T1, Prolyl endopeptidase (Homo sapiens, UniProt P48147).
T1 sequence (P48147 whole entry): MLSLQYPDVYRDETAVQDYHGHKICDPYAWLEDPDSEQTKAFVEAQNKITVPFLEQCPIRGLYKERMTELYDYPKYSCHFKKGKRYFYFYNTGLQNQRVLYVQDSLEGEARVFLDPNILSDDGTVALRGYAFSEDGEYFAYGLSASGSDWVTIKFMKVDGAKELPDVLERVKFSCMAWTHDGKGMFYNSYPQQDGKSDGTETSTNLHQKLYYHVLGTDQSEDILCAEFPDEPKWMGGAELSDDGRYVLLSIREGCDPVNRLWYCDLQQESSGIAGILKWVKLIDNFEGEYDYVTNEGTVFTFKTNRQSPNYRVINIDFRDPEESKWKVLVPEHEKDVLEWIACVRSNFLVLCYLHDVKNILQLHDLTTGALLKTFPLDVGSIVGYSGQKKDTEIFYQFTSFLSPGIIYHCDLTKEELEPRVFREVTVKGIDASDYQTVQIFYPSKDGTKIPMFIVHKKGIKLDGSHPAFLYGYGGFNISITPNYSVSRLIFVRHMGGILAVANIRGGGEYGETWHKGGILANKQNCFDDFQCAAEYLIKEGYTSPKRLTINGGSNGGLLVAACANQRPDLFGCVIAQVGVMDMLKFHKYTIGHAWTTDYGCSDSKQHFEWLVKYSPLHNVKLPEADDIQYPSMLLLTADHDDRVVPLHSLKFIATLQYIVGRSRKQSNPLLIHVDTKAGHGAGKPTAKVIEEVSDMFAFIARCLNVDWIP
Kind of experiment: Inhibitory constant against POP.

Experiment [1] deals with Dipeptidyl peptidase 4 (Homo sapiens) (UniProt P27487). Kind of experiment: Inhibition of DPP-4 at 500uM.
Dipeptidyl peptidase 4 (Homo sapiens), sequence (P27487 whole entry, looked up): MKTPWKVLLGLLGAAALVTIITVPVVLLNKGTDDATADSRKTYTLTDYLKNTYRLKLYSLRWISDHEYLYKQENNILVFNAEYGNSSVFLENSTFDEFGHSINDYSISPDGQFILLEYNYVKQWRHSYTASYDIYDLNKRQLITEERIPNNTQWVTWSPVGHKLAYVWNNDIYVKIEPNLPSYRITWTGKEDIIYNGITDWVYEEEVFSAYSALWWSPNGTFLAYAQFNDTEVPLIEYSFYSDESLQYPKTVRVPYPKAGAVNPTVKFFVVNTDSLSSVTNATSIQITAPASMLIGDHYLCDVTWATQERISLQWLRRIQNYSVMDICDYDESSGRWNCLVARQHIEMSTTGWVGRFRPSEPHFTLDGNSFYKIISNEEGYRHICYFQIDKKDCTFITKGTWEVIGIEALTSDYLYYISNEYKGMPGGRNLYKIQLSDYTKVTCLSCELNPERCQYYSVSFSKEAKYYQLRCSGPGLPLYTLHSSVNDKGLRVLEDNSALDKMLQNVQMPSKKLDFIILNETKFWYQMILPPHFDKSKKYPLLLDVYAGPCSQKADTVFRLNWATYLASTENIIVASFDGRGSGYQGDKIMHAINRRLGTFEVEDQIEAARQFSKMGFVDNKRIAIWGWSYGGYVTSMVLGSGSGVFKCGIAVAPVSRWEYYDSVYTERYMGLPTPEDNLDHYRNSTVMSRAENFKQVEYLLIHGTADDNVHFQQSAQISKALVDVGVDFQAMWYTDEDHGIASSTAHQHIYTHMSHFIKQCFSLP

What is called Ki is a measure of affinity in units of concentration, obtained from inhibition or displacement. Higher therefore signals weaker binding. `CS(=O)(=O)NCC(=O)N1CCC[C@H]1B(O)O` had an inhibitory constant (Ki) at Prolyl endopeptidase of 1360 nM.

In general, inhibition refers to the change of the read-out against control, counted positive when it falls. Lower therefore signals a response near the control. `CC(=O)N[C@H](C)C(=O)N1CCC[C@H]1B(O)O` displayed an inhibition in experiment [1] of 17%.

`CC(C)C(=O)N(C)CC(=O)N1CCC[C@H]1B(O)O`: the affinity at Prolyl endopeptidase, expressed as Ki, was 13 nM.

(Values after ChEMBL document CHEMBL1137598, “Synthesis and structure-activity relationship of N-acyl-Gly-, N-acyl-Sar- and N-blocked-boroPro inhibitors of FAP, DPP4, and POP” (Bioorg Med Chem Lett, 2007).)
